Consider 26 compounds from patent US8772323B2, “Benzoxazole- and tetrahydrobenzoxazole-substituted pyridazinones as GPR119 agonists” (Boehringer Ingelheim International GmbH, priority 2010, dated 2014).

pEC50: −log10 of the molar value. Where a name gives a salt, the structure may show the parent alone.

This assay deals with human GPR119 (Homo sapiens (Human), UniProt Q8TDV5). As to the kind of experiment: AlphaScreen cAMP assay in Min-6/hGPR119 cells (GPR119 activation, intracellular cAMP). The format is cell-based. As to conditions: MIN6 cells stably transfected with human GPR119; 45 minutes' incubation at RT; AlphaScreen cAMP Assay Kit. A digest of the protocol: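 cAMP quantified by AlphaScreen after 45 min room-temperature compound exposure in HEPES/bicarbonate buffer, pH 7.4, containing 0.5 mM IBMX, 0.1% BSA and 1% DMSO final. Cells were Min-6 stably transfected with human GPR119, seeded 24 h beforehand.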
human GPR119, sequence (Q8TDV5 whole entry): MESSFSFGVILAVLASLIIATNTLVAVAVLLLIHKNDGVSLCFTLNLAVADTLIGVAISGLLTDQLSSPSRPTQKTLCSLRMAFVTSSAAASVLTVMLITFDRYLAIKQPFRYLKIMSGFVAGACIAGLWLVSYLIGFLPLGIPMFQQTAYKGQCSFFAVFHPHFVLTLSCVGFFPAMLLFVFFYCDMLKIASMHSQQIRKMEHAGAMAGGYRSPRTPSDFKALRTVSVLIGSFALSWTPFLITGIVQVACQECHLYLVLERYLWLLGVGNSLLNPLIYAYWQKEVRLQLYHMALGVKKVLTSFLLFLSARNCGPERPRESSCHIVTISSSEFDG
(Bead proximity is the source of the signal in Alpha formats.)
With `CCC1CC(=O)NN=C1c1ccc2nc(-c3cccc(OCCN4CC(C)OC(C)C4)c3)oc2c1` (centres unmarked) [Example 216, 6-(2-{3-[2-(2,6-dimethyl-morpholin-4-yl)-ethoxy]-phenyl}-benzoxazol-6-yl)-5-ethyl-4,5-dihydro-2H-pyridazin-3-one], the negative logarithm of the EC50 (pEC50) (usually the negative decadic logarithm of the EC50, by convention in mol/L) was 6.19.

The compound `CCC1CC(=O)NN=C1c1ccc2nc(-c3cccc(OCCN(C)C(C)C)c3)oc2c1` (centres unmarked) [Example 217] had a pEC50 of 5.62.

For `CCC1CC(=O)NN=C1c1ccc2nc(-c3cccc(OCCN(CC)C(C)C)c3)oc2c1` (centres unmarked) [Example 218], the pEC50 is 6.08.

In turn, `CCC1CC(=O)NN=C1c1ccc2nc(-c3ccc(OCCN(C)C(C)C)cc3)oc2c1` (centres unmarked) [Example 219, 5-ethyl-6-(2-{4-[2-(isopropyl-methyl-amino)-ethoxy]-phenyl}-benzoxazol-6-yl)-4,5-dihydro-2H-pyridazin-3-one] had a pEC50 of 6.36.

`CCC1CC(=O)NN=C1c1ccc2nc(-c3ccc(OCCN4CC(C)OC(C)C4)cc3)oc2c1` (centres unmarked) [Example 220, 6-(2-{4-[2-(2,6-dimethyl-morpholin-4-yl)-ethoxy]-phenyl}-benzoxazol-6-yl)-5-ethyl-4,5-dihydro-2H-pyridazin-3-one] gave a pEC50 of 7.08.

`CCC1CC(=O)NN=C1c1ccc2nc(-c3ccc(OC(C)CN4CCOCC4)cc3)oc2c1` (centres unmarked) [Example 221, 5-ethyl-6-{2-[4-(1-methyl-2-morpholin-4-yl-ethoxy)-phenyl]-benzoxazol-6-yl}-4,5-dihydro-2H-pyridazin-3-one]: the pEC50 was 6.69.

As for `CCC1CC(=O)NN=C1c1ccc2nc(-c3ccc(OCCN(CC)CC)cc3)oc2c1` (centres unmarked) [Example 222, 6-{2-[4-(2-diethylamino-ethoxy)-phenyl]-benzoxazol-6-yl}-5-ethyl-4,5-dihydro-2H-pyridazin-3-one], the negative logarithm of the EC50 (pEC50) is 6.52.

The compound `CCC[C@@H]1C(=O)NN=C(c2ccc3nc(-c4ccc(OCCN5C[C@@H](C)O[C@@H](C)C5)cc4)oc3c2)[C@H]1C` [Example 223, Trans-6-(2-{4-[2-(2S,6R-dimethyl-morphoin-4-yl)-ethoxy]-phenyl}-benzoxazol-6-yl)-5-methyl-4-propyl-4,5-dihydro-2H-pyridazin-3-one] had a pEC50 of 7.34.

`CCC1CC(=O)NN=C1c1ccc2nc(-c3ccc(OC[C@@H]4CCCN4C(=O)OC(C)(C)C)cc3)oc2c1` (some centres unmarked) [Example 226] had a pEC50 of 7.33.

On to `CCC1CC(=O)NN=C1c1ccc2nc(-c3ccc(OC[C@H]4CCCN4C(=O)OC(C)(C)C)cc3)oc2c1` (some centres unmarked) [Example 227], for which the pEC50 was 7.28.

`CCC1CC(=O)NN=C1c1ccc2nc(-c3ccc(OC(C)(C)CN4CCCC4)cc3)oc2c1` (centres unmarked) [Example 228, 6-{2-[4-(1,1-dimethyl-2-pyrrolidin-1-yl-ethoxy)-phenyl]-benzoxazol-6-yl}-5-ethyl-4,5-dihydro-2H-pyridazin-3-one] had a pEC50 of 6.26.

In turn, `CCC1CC(=O)NN=C1c1ccc2nc(-c3ccc(OCC(C)(C)N4CCCC4)cc3)oc2c1` (centres unmarked) [Example 229, 5-ethyl-6-(2-{4-[2-methyl-2-(pyrrolidin-1-yl)propoxy]phenyl}-1,3-benzoxazol-6-yl)-2,3,4,5-tetrahydropyridazin-3-one] gave a pEC50 of 6.40.

In the case of `CCC1CC(=O)NN=C1c1ccc2nc(-c3cccc(OC(C)CN4CCCCC4)c3)oc2c1` (centres unmarked) [Example 230, 5-ethyl-6-{2-[3-(1-methyl-2-piperidin-1-yl-ethoxy)-phenyl]-benzoxazol-6-yl}-4,5-dihydro-2H-pyridazin-3-one], the pEC50 was 5.93.

Take `CCC1CC(=O)NN=C1c1ccc2nc(-c3ccc(OC(C)(C)CN4CCOCC4)cc3)oc2c1` (centres unmarked) [Example 231, 6-{2-[4-(1,1-dimethyl-2-morpholin-4-yl-ethoxy)-phenyl]-benzoxazol-6-yl}-5-ethyl-4,5-dihydro-2H-pyridazin-3-one]: the pEC50 was 6.92.

Regarding `CCC1CC(=O)NN=C1c1ccc2nc(-c3ccc(OCC(C)(C)N4CCOCC4)cc3)oc2c1` (centres unmarked) [Example 232, 5-ethyl-6-{2-[4-(2-methyl-2-morpholin-4-yl-propoxy)-phenyl]-benzoxazol-6-yl}-4,5-dihydro-2H-pyridazin-3-one], the pEC50 is 7.16.

In turn, `CCC1CC(=O)NN=C1c1ccc2nc(-c3ccc(OCC4CCCCN4C)cc3)oc2c1` (centres unmarked) [Example 233, 5-ethyl-6-{2-[4-(1-methyl-2-piperidin-2-yl-methoxy)-phenyl]-benzoxazol-6-yl}-4,5-dihydro-2H-pyridazin-3-one] had a pEC50 of 6.07.

Compound `CCC1CC(=O)NN=C1c1ccc2nc(-c3ccc(OC4CCCCCN4C)cc3)oc2c1` (centres unmarked) [Example 234, 5-ethyl-6-{2-[4-(1-methyl-2-azepan-2-yloxy)-phenyl]-benzoxazol-6-yl}-4,5-dihydro-2H-pyridazin-3-one] had a pEC50 of 6.51.

Turning to `CC[C@H]1CC(=O)NN=C1c1ccc2nc(-c3ccc(OCC(C)N4CCCCC4)cc3)oc2c1` (stereo partly drawn) [Example 236, 5(S)-ethyl-6-{2-[4-(2-piperidin-1-yl-propoxy)-phenyl]-benzoxazol-6-yl}-4,5-dihydro-2H-pyridazin-3-one], the pEC50 was 5.96.

As to `CC[C@@H]1CC(=O)NN=C1c1ccc2nc(-c3ccc(OCC(C)N4CCCCC4)cc3)oc2c1` (stereo partly drawn) [Example 237, 5(R)-ethyl-6-{2-[4-(2-piperidin-1-yl-propoxy)-phenyl]-benzoxazol-6-yl}-4,5-dihydro-2H-pyridazin-3-one], the pEC50 is 7.14.

Compound `CCC1CC(=O)NN=C1c1ccc2nc(-c3ccc(OC[C@@H]4CCCN4)cc3)oc2c1` (some centres unmarked) [Example 238, 5-ethyl-6-{2-[4-(S-pyrrolidin-2-yl-methoxy)-phenyl]-benzoxazol-6-yl}-4,5-dihydro-2H-pyridazin-3-one×HCl] had a negative-log EC50 (pEC50) of 5.53.

Regarding `CCC1CC(=O)NN=C1c1ccc2nc(-c3ccc(OC[C@H]4CCCN4)cc3)oc2c1` (stereo partly drawn) [Example 239, 5-ethyl-6-(2-{4-[(2R)-pyrrolidin-2-ylmethoxy]phenyl}-1,3-benzoxazol-6-yl)-2,3,4,5-tetrahydropyridazin-3-one], the pEC50 is 5.78.

On to `CCC1CC(=O)NN=C1c1ccc2nc(-c3ccc(OC[C@@H]4CCCN4C(C)C)cc3)oc2c1` (some centres unmarked) [Example 240, 5-ethyl-6-{2-[4-(1-isopropyl-5-pyrrolidin-2-yl-methoxy)-phenyl]-benzoxazol-6-yl}-4,5-dihydro-2H-pyridazin-3-one], for which the pEC50 was 6.73.

With `CCC1CC(=O)NN=C1c1ccc2nc(-c3ccc(OC[C@H]4CCCN4C(C)C)cc3)oc2c1` (some centres unmarked) [Example 241, 5-ethyl-6-{2-[4-(1-isopropyl-R-pyrrolidin-2-yl-methoxy)-phenyl]-benzoxazol-6-yl}-4,5-dihydro-2H-pyridazin-3-one], the pEC50 is 6.72.

With `CCC1CC(=O)NN=C1c1ccc2nc(-c3ccc(OC[C@@H]4CCCN4C)cc3)oc2c1` (some centres unmarked) [Example 242, 5-ethyl-6-{2-[4-(1-methyl-S-pyrrolidin-2-yl-methoxy)-phenyl]-benzoxazol-6-yl}-4,5-dihydro-2H-pyridazin-3-one], the pEC50 was 6.53.

The compound `CCC1CC(=O)NN=C1c1ccc2nc(-c3ccc(OCCN4CCC(C)CC4)cc3)oc2c1` (centres unmarked) [Example 243, 5-ethyl-6-(2-{4-[2-(4-methyl-piperidin-1-yl)-ethoxy]-phenyl}-benzoxazol-6-yl)-4,5-dihydro-2H-pyridazin-3-one] gave a pEC50 of 6.71.

In turn, `CCCC1CCN(CCOc2ccc(-c3nc4ccc(C5=NNC(=O)CC5CC)cc4o3)cc2)CC1` (centres unmarked) [Example 244, 5-ethyl-6-(2-{4-[2-(4-propyl-piperidin-1-yl)-ethoxy]-phenyl}-benzoxazol-6-yl)-4,5-dihydro-2H-pyridazin-3-one] gave a pEC50 of 6.74.
